Reference: patent US8048880B2, “Treatment of cardiovascular disease and dyslipidemia using secretory phospholipase A2 (SPLA2) inhibitors and SPLA2 inhibitor combination therapies” (Anthera Pharmaceuticals, Inc., priority 2007, dated 2011)

How the values were obtained:
Assay type in all cases: in vivo
[1] = test system: human subjects with CVD, specifically stable coronary artery disease; assay: Serum lipid levels in humans, A-002 twice a day for eight weeks (Example 4)
Method: 204 human subjects from the United States with CVD, specifically stable coronary artery disease, were randomized to receive placebo or A-002 via oral administration twice a day over an eight week administration period at dosages of 50 mg, 100 mg, 250 mg, or 500 mg. Levels of various lipids and inflammatory markers were measured at the outset of the trial and at the end of weeks four and/or eight. For data sets with a normal distribution, mean levels of lipids or inflammatory markers were analyzed. For data sets with non-normal distribution, median levels were analyzed. […] In addition, administration of A-002 decreased median levels of CRP (Table 11).
The combined effect of A-002 and statin administration on LDL levels was tested in a population of 332 subjects. This population consisted of the original 204 United States subjects, plus an additional 128 subjects from the Ukraine with stable CAD that received placebo or A-002 based according to the same protocol as the United States subjects. […] Similarly, A-002 decreased LDL levels in subjects receiving a variety of non-statin compounds used in the treatment of CVD, including ezetimibe, AEGR-733/ezetimibe, colesevelam hydrochloride (WelChol®), MK-0524A (Cordaptive®), lisinopril/MC-1 antibody (MC-4232), and Angiotensin Receptor Blocker (ARB)/MC-1 (MC-4262).

ApoE−/− mice [2] = assay: En face lesion size in ApoE−/− mice on high fat diet, A-002 and/or statin (Example 3); settings: 0.02 g/kg pravastatin in diet alone, 12 weeks
Method: (§1) Body weight, plasma total cholesterol, and plasma HDL levels were measured for six groups of twelve ApoE^−/− mice. The mice were then placed on a high fat diet for twelve weeks to allow for formation of significant fatty atherosclerotic plaques. The high fat diet was a modified version of the Western diet (TD.88137, Harlan Teklad, Madison, Wis.) consisting of casein (195 g/kg), DL-methionine (3 g/kg), sucrose (341.44 g/kg), corn starch (150 g/kg), anhydrous milkfat (210 g/kg), cholesterol (1.5 g/kg), cellulose (50 g/kg), mineral mix AlN-76 (Teklad; 35 g/kg), calcium carbonate (4 g/kg), vitamin mix (Teklad #40060; 10 g/kg), ethyoxyquin (antioxidant, 0.04 g/kg), and either 0.0156 g/kg (“low dose”) A-002 (Group A), 1.56 g/kg (“high dose”) A-002 (Group B), 0.02 g/kg pravastatin (Group C), low dose A-002 plus 0.02 g/kg pravastatin (Group D), high dose A-002 plus 0.02 g/kg pravastatin (Group E), or vehicle only (Group F). Mice were administered diets A-F in a blinded manner, and food was provided ad libitum. The diet was initially prepared based on the assumption that each mouse weighed 22.5 g and ate 4.5 g/day. Based on body weight and food consumption, the diet was modified over the 12 week course of treatment to adjust for a body weight of 26 g and a food intake of 2.5 g/day. The dosages of A-002 were selected to cover a range of 100-fold based on pharmacokinetics in ApoE^−/− mice as well as toxicology and previously observed efficacy in this model.
After twelve weeks, mice were sacrificed and plasma, heart tissue, and aortic tissue were collected. En face lesion size was determined via digital imaging analysis. Plaque content (as measured as en face lesion) was reduced in mice administered A-002 alone, statin alone, or A-002 in combination with statin. The reduction in plaque content in mice administered A-002 plus statin was substantially greater than the reduction in mice administered either compound alone (Table 2, compare Group D vs. Groups A and C; Group E vs. Groups B and C). Further, the reduction in plaque content in mice administered A-002 plus statin was substantially greater than the sum of the reduction in plaque content in mice administered A-002 alone and mice administered statin alone.

ApoE−/− mice [3] = assay: Plasma total cholesterol and HDL levels in ApoE−/− mice, A-002 and/or statin (Example 3); settings: 0.02 g/kg pravastatin in diet alone, 12 weeks
Method: as §1
Plasma total cholesterol and HDL levels were measured. Mean levels of total cholesterol were decreased in mice administered A-002 alone or in combination with statin (Table 3, FIG. 6). […] Mean levels of HDL were increased in mice administered A-002 at either dosage (Table 4). This increase was greater in mice administered high dose A-002 plus statin than in mice administered high dose A-002 or statin alone (Table 4 compare Group E vs. Groups B and C; FIG. 7).

[4] = summary Table 20, A-002 alone, statin alone or A-002 plus statin

SMILES	increase of mean serum small LDL particle levels ([1]; at eight weeks, United States population, statin alone (Table 14))	decrease of mean serum LDL levels ([1]; at eight weeks, United States subjects with baseline LDL of 72 mg/dl or greater, text restating Tables 15 and 19)	decrease of mean serum LDL levels ([1]; at week eight, combined United States and Ukraine populations, Tables 16 and 18)	decrease of mean serum LDL levels ([1]; at week four, combined United States and Ukraine populations, Tables 16 and 18)	Observed change following administration: Mean serum [LDL] at week 4 [1, 4]	Observed change following administration: Mean serum [LDL] at week 8 [1, 4]	Observed change following administration: Mean serum [LDL] in ≧72 mg/dl subpopulation at week 8 [1, 4]	Observed change following administration: Mean serum [small LDL particle] at week 8 [1, 4]	Change in mean % en face lesion vs. control (ApoE−/− mice [2])	Mean % en face lesion (ApoE−/− mice [2])	Mean HDL concentration (ApoE−/− mice [3])	Mean total cholesterol concentration (ApoE−/− mice [3])	Observed change following administration: Mean serum [LDL] at week 8 ([1]; summary Table 22, A-002 alone, ezetimibe alone or A-002 plus ezetimibe)
CC[C@H](C)C(=O)O[C@H]1C[C@H](O)C=C2C=C[C@H](C)[C@H](CC[C@@H](O)C[C@@H](O)CC(=O)O)[C@H]21 [Statin, pravastatin, reference compound]	13.26%	4.40%	2.15%	3.36%	−3.36%	−2.15%	−4.40%	+13.26%	−0.813%	4.814%	14.500 mg/dL	1405.417 mg/dL	–
O=C1[C@H](CC[C@H](O)c2ccc(F)cc2)[C@@H](c2ccc(O)cc2)N1c1ccc(F)cc1 [ezetimibe, reference compound]	–	–	–	–	–	–	–	–	–	–	–	–	−1.7%
